According to article PMC8524809 (Molecular Therapy, 2021):

Tests used:
[1] = system: SARS-CoV-2 S pseudovirion beta variant; type: cell-based; details: similar to the WT
[2] = system: SARS-CoV-2 S pseudovirion alpha variant; type: cell-based; details: similar to the WT

CC(C)(O)c1ccccc1CC[C@@H](SCC1(CC(=O)O)CC1)c1cccc(/C=C/c2ccc3ccc(Cl)cc3n2)c1 [montelukast]
Inhibition of pseudovirus entry [1]: increase in a dose-dependent manner
Inhibition of pseudovirus entry [2]: increase in a dose-dependent manner
